This is an account of results in PubChem BioAssay AID248 (DTP/NCI, 2004).

In the test the test system is L1210 leukemia ip in BDF1 mice, survival T/C. The test can be described thus: NCI In Vivo Anticancer Drug Screen. Data for tumor model L1210 Leukemia (intraperitoneal) in B6D2F1 (BDF1) mice. The settings on record: endpoint: mean survival time, higher = longer survival. Summed up: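 Tumor cells were implanted, animals were treated, and survival was followed. The result divides the treated measurement by the vehicle-control measurement.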

[1] abbreviates: dose: 100.0 mg/kg/injection, schedule: Q01DX001 (ip), vehicle: carboxymethylcellulose (CMC).
[2] abbreviates: dose: 200.0 mg/kg/injection, schedule: Q01DX001 (ip), vehicle: carboxymethylcellulose (CMC).
Where [3] appears, read: dose: 400.0 mg/kg/injection, schedule: Q01DX001 (ip), vehicle: carboxymethylcellulose (CMC).
Where [4] appears, read: dose: 100.0 mg/kg/injection, schedule: Q04DX002 (ip), vehicle: saline.
Where [5] appears, read: dose: 200.0 mg/kg/injection, schedule: Q04DX002 (ip), vehicle: saline.
[6] abbreviates: dose: 400.0 mg/kg/injection, schedule: Q04DX002 (ip), vehicle: saline.
Setting [7] is: dose: 100.0 mg/kg/injection, schedule: Q01DX001 (ip), vehicle: saline.
Setting [8] is: dose: 200.0 mg/kg/injection, schedule: Q01DX001 (ip), vehicle: saline.
Setting [9] is: dose: 400.0 mg/kg/injection, schedule: Q01DX001 (ip), vehicle: saline.
[10] abbreviates: dose: 100.0 mg/kg/injection, schedule: Q01DX001 (ip), vehicle: Klucel (hydroxypropylcellulose) (HPC).
Where [11] appears, read: dose: 200.0 mg/kg/injection, schedule: Q01DX001 (ip), vehicle: Klucel (hydroxypropylcellulose) (HPC).
Setting [12] is: dose: 400.0 mg/kg/injection, schedule: Q01DX001 (ip), vehicle: Klucel (hydroxypropylcellulose) (HPC).
[13] abbreviates: dose: 100.0 mg/kg/injection, schedule: Q01DX009 (ip), vehicle: saline with Tween-80.
[14] abbreviates: dose: 200.0 mg/kg/injection, schedule: Q01DX009 (ip), vehicle: saline with Tween-80.
Where [15] appears, read: dose: 400.0 mg/kg/injection, schedule: Q01DX009 (ip), vehicle: saline with Tween-80.
The mark [16] stands for this setting: dose: 100.0 mg/kg/injection, schedule: Q04DX003 (ip), vehicle: saline with Tween-80.
Where [17] appears, read: dose: 200.0 mg/kg/injection, schedule: Q04DX003 (ip), vehicle: saline with Tween-80.
Setting [18] is: dose: 400.0 mg/kg/injection, schedule: Q04DX003 (ip), vehicle: saline with Tween-80.
The mark [19] stands for this setting: dose: 100.0 mg/kg/injection, schedule: Q01DX009 (ip), vehicle: Klucel (hydroxypropylcellulose) (HPC).
[20] abbreviates: dose: 200.0 mg/kg/injection, schedule: Q01DX009 (ip), vehicle: Klucel (hydroxypropylcellulose) (HPC).
Where [21] appears, read: dose: 100.0 mg/kg/injection, schedule: Q01DX001 (ip), vehicle: saline with Tween-80.
The mark [22] stands for this setting: dose: 200.0 mg/kg/injection, schedule: Q01DX001 (ip), vehicle: saline with Tween-80.

Molecules are shown by their SMILES. “And” between values parts separate entries of the source, which are not always exact repeats. Equal values may be shown once. Toxic doses and inconclusive results are not listed.

Regarding `CCOc1cc(C)c2cccc(C)c2n1`, the T/C reads like this: under setting [1], 88 % of control; (dose: 100.0 mg/kg/injection, schedule: Q01DX001 (ip), vehicle: other) 95 % of control; under setting [2], 96 % of control; (dose: 200.0 mg/kg/injection, schedule: Q01DX001 (ip), vehicle: other) 106 % of control; under setting [3], 98 % of control.

Turning to `CCOC(=O)C(=O)C1C(=O)C(=O)C(c2ccccc2)C1=O` (centres undefined), the T/C by setting is: (dose: 75.0 mg/kg/injection, schedule: Q01DX001 (ip), vehicle: carboxymethylcellulose (CMC)) 104 % of control; (dose: 150.0 mg/kg/injection, schedule: Q01DX001 (ip), vehicle: carboxymethylcellulose (CMC)) 100 % of control; (dose: 300.0 mg/kg/injection, schedule: Q01DX001 (ip), vehicle: carboxymethylcellulose (CMC)) 105 % of control.

On to `O=c1[nH]cc([N+](=O)[O-])c(=O)[nH]1`, for which the T/C runs as follows: under setting [4], 100 % of control; under setting [5], 106 % of control; under setting [6], 95 % of control.

`CC[NH-].CC[NH-].[Br][Pt+2][Br]`: the T/C is 122 % of control (dose: 100.0 mg/kg/injection, schedule: Q04DX003 (ip), vehicle: other) and 105 % of control (dose: 200.0 mg/kg/injection, schedule: Q04DX003 (ip), vehicle: other).

As to `CCOC(=O)N1C2CCC(C2)N1C(=O)OCC`, the T/C under setting [7] was 103 % of control, the T/C under setting [8] was 100 % of control and the T/C under setting [9] is 103 % of control.

Turning to `Cc1ncc(CN2CSC(CCO)C2C)c(N)n1` (centres undefined), the T/C by setting is: under setting [10], 95 % of control; under setting [11], 93 % of control; under setting [12], 93 % of control.

Take `COc1ccccc1NC(=O)CC(C)=O`: the T/C by setting is: (dose: 50.0 mg/kg/injection, schedule: Q01DX001 (ip), vehicle: Klucel (hydroxypropylcellulose) (HPC)) 100 % of control; under setting [10], 100 % of control; under setting [13], 103 % of control; under setting [11], 106 % of control; under setting [14], 95 % of control; under setting [15], 97 % of control.

As to `CC(=O)N(C)c1cc([N+](=O)[O-])ccc1OCc1ccccc1`, the T/C was 102 % of control (dose: 50.0 mg/kg/injection, schedule: Q01DX001 (ip), vehicle: saline) and 96 % of control under setting [7].

As to `O=C(O)CCCc1ccc2c(c1)-c1ccccc1S2=O` (centres undefined), the T/C is 106 % of control under setting [16], 109 % of control under setting [17] and 110 % of control under setting [18].

For `CC1CS(=O)(=O)O1` (centres undefined), the T/C is 114 % of control (dose: 100.0 mg/kg/injection, schedule: Q04DX002 (ip), vehicle: saline with Tween-80) and 105 % of control (dose: 200.0 mg/kg/injection, schedule: Q04DX002 (ip), vehicle: saline with Tween-80).

As for `Cc1ccnc(NS(=O)(=O)c2ccc(N=Nc3nc4[nH]c(N)nc(=S)c4[nH]3)cc2)n1`, the T/C is, setting by setting: (dose: 1.56 mg/kg/injection, schedule: Q01DX009 (ip), vehicle: Klucel (hydroxypropylcellulose) (HPC)) 230 % of control; (dose: 12.5 mg/kg/injection, schedule: Q01DX009 (ip), vehicle: Klucel (hydroxypropylcellulose) (HPC)) 94 % of control and 108 % of control; (dose: 25.0 mg/kg/injection, schedule: Q04DX003 (ip), vehicle: Klucel (hydroxypropylcellulose) (HPC)) 162 % of control and 180 % of control; (dose: 50.0 mg/kg/injection, schedule: Q04DX003 (ip), vehicle: Klucel (hydroxypropylcellulose) (HPC)) 173 % of control and 182 % of control and 192 % of control.

For `O=C(O)c1cc(C(=O)O)c(C(=O)O)cc1C(=O)O`, the T/C reads like this: under setting [13], 96 % of control; under setting [14], 91 % of control; under setting [15], 94 % of control.

For `CCOC(=O)c1ccc(C(=O)OCC)c(C#N)n1`, the T/C under setting [19] is 102 % of control; the T/C (dose: 100.0 mg/kg/injection, schedule: Q04DX003 (ip), vehicle: Klucel (hydroxypropylcellulose) (HPC)) was 100 % of control; the T/C under setting [20] is 97 % of control; the T/C (dose: 200.0 mg/kg/injection, schedule: Q04DX003 (ip), vehicle: Klucel (hydroxypropylcellulose) (HPC)) is 93 % of control; the T/C (dose: 400.0 mg/kg/injection, schedule: Q04DX003 (ip), vehicle: Klucel (hydroxypropylcellulose) (HPC)) is 95 % of control.

Regarding `O=C1c2cccc3cccc(c23)C(=O)N1CCCCCCCCN1C(=O)c2cccc3cccc(c23)C1=O`, the T/C is 88 % of control (dose: 100.0 mg/kg/injection, schedule: Q04DX002 (ip), vehicle: Klucel (hydroxypropylcellulose) (HPC)) and 101 % of control (dose: 200.0 mg/kg/injection, schedule: Q04DX002 (ip), vehicle: Klucel (hydroxypropylcellulose) (HPC)).

Take `Nc1cccc(CCCCc2ccccc2)c1`: the T/C under setting [21] was 102 % of control and the T/C under setting [22] was 100 % of control.

Turning to `O=C(N/N=C\c1cc(Cl)cc(Cl)c1O)c1cccnc1`, the T/C was 100 % of control under setting [19] and 89 % of control under setting [20].

With `Cc1cc(O)c(C)c(C(=O)O)c1`, the T/C runs as follows: under setting [1], 98 % of control; under setting [2], 106 % of control; under setting [3], 98 % of control.

Regarding `CC[N+](CC)(CCOC(=O)C1C2CC3OC(=O)C1C3C2)Cc1ccccc1` (centres undefined), the T/C (dose: 12.5 mg/kg/injection, schedule: Q04DX003 (ip), vehicle: saline) was 89 % of control; the T/C (dose: 25.0 mg/kg/injection, schedule: Q04DX003 (ip), vehicle: saline) was 89 % of control; the T/C (dose: 50.0 mg/kg/injection, schedule: Q04DX003 (ip), vehicle: saline) is 106 % of control; the T/C (dose: 100.0 mg/kg/injection, schedule: Q04DX003 (ip), vehicle: saline) was 93 % of control.

As for `CC(C)C1(NC(=O)C2C=C3c4cccc5[nH]cc(c45)CC3N(C)C2)OC2(O)C3CCCN3C(=O)C(Cc3ccccc3)N2C1=O` (centres undefined) (tested in a mixture with another compound), the T/C was 107 % of control under setting [7], 102 % of control under setting [8] and 100 % of control under setting [9].

Regarding `O=C(Nc1cccc(F)c1)Oc1ccc(OCc2ccccc2)cc1`, the T/C under setting [4] is 101 % of control, the T/C under setting [5] was 90 % of control and the T/C under setting [6] was 90 % of control.

`O=S(=O)(CCCCCl)Nc1ccc(NS(=O)(=O)CCCCCl)cc1`: the T/C under setting [21] was 102 % of control; the T/C under setting [16] is 97 % of control; the T/C under setting [22] was 92 % of control; the T/C under setting [17] was 90 % of control; the T/C (dose: 400.0 mg/kg/injection, schedule: Q01DX001 (ip), vehicle: saline with Tween-80) was 92 % of control; the T/C under setting [18] is 92 % of control.

For the compound `NNC(=O)c1ccc(Cl)cc1Nc1ccc(Cl)cc1`, the T/C is, setting by setting: (dose: 25.0 mg/kg/injection, schedule: Q01DX009 (ip), vehicle: Klucel (hydroxypropylcellulose) (HPC)) 93 % of control; (dose: 50.0 mg/kg/injection, schedule: Q01DX009 (ip), vehicle: Klucel (hydroxypropylcellulose) (HPC)) 95 % of control; under setting [10], 97 % of control; under setting [19], 91 % of control.

Consider `O=C1CC2(CC3(Cl)C(Cl)=C(Cl)C2(Cl)C3(Cl)Cl)C(=O)O1` (centres undefined), for which the T/C runs as follows: (dose: 50.0 mg/kg/injection, schedule: Q01DX001 (ip), vehicle: carboxymethylcellulose (CMC)) 100 % of control; under setting [1], 102 % of control; under setting [2], 102 % of control; under setting [3], 102 % of control.

On to `CN1CN(c2ccccc2)C2(CCN(CCC3Oc4ccccc4O3)CC2)C1=O`, for which the T/C is, setting by setting: under setting [10], 102 % of control; under setting [11], 98 % of control; under setting [12], 103 % of control.

As for `CCN(CC)Cc1c(C)[nH]c2c(OC)cccc2c1=O`, the T/C was 103 % of control (dose: 25.0 mg/kg/injection, schedule: Q04DX003 (ip), vehicle: water); 97 % of control (dose: 50.0 mg/kg/injection, schedule: Q04DX003 (ip), vehicle: water); 101 % of control (dose: 100.0 mg/kg/injection, schedule: Q01DX009 (ip), vehicle: water); 100 % of control and 102 % of control (dose: 100.0 mg/kg/injection, schedule: Q04DX003 (ip), vehicle: water).
